Assay: xn = mol fraction of the nth substance listed
Settings: 100 kPa

CCCCO + CC[n+]1ccn(C)c1.N#C[N-]C#N
x2 = 0
Settings | speed of sound [m/s] | viscosity [mPa·s]
298.15 K | 1241 | 2.69
303.15 K | 1224 | 2.41
308.15 K | 1207 | 2.17
313.15 K | 1191 | 1.91
318.15 K | 1174 | 1.71
323.15 K | 1158 | 1.57

CC[n+]1ccn(C)c1.N#C[N-]C#N + CCCCO
Settings | speed of sound [m/s] | viscosity [mPa·s]
298.15 K, x1 = 0.1015 | 1316 | 2.73
298.15 K, x1 = 0.2007 | 1385 | 2.85
298.15 K, x1 = 0.4008 | 1515 | 3.54
298.15 K, x1 = 0.5021 | 1575 | 4.21
298.15 K, x1 = 0.6014 | 1629 | 5.1
298.15 K, x1 = 0.7012 | 1685 | 6.4
298.15 K, x1 = 0.8016 | 1725 | 7.9
298.15 K, x1 = 0.9012 | 1763 | 10
298.15 K, x1 = 1 | 1787 | 13.1
303.15 K, x1 = 0.1015 | 1300 | 2.36
303.15 K, x1 = 0.2007 | 1369 | 2.41
303.15 K, x1 = 0.3006 | 1435 | 2.63
303.15 K, x1 = 0.4008 | 1499 | 2.99
303.15 K, x1 = 0.5021 | 1559 | 3.55
303.15 K, x1 = 0.6014 | 1613 | 4.26
303.15 K, x1 = 0.7012 | 1669 | 5.2
303.15 K, x1 = 0.8016 | 1709 | 6.6
303.15 K, x1 = 1 | 1775 | 11.8
308.15 K, x1 = 0.1015 | 1283 | 2.11
308.15 K, x1 = 0.2007 | 1352 | 2.17
308.15 K, x1 = 0.5021 | 1542 | 2.86
308.15 K, x1 = 0.6014 | 1596 | 3.47
308.15 K, x1 = 0.9012 | 1730 | 7.3
308.15 K, x1 = 1 | 1763 | 10.9
313.15 K, x1 = 0.1015 | 1266 | 1.91
313.15 K, x1 = 0.4008 | 1466 | 2.16
313.15 K, x1 = 0.5021 | 1525 | 2.38
313.15 K, x1 = 0.6014 | 1580 | 2.89
313.15 K, x1 = 0.7012 | 1636 | 3.58
313.15 K, x1 = 0.8016 | 1676 | 4.42
313.15 K, x1 = 0.9012 | 1713 | 6
313.15 K, x1 = 1 | 1751 | 9
318.15 K, x1 = 0.1015 | 1250 | 1.71
318.15 K, x1 = 0.2007 | 1319 | 1.79
318.15 K, x1 = 0.3006 | 1385 | 1.86
318.15 K, x1 = 0.4008 | 1449 | 1.93
318.15 K, x1 = 0.5021 | 1509 | 2.07
318.15 K, x1 = 0.7012 | 1619 | 2.91
318.15 K, x1 = 0.8016 | 1659 | 3.61
318.15 K, x1 = 0.9012 | 1697 | 5
318.15 K, x1 = 1 | 1739 | 8.1
323.15 K, x1 = 0.1015 | 1233 | 1.52
323.15 K, x1 = 0.3006 | 1369 | 1.63
323.15 K, x1 = 0.5021 | 1492 | 1.84
323.15 K, x1 = 0.6014 | 1547 | 1.99
323.15 K, x1 = 0.7012 | 1603 | 2.43
323.15 K, x1 = 0.8016 | 1643 | 3.03
323.15 K, x1 = 0.9012 | 1680 | 4.01
323.15 K, x1 = 1 | 1727 | 7.3
